In series [1] the test system is Staphylococcus aureus (NCTC 10788). Nature of the series: MIC by broth microdilution. In kind it is cell-based. Conditions: Staphylococcus aureus NCTC 10788, 37 °C. Here is the method: (§1) The minimum inhibitory concentration (MIC) of pure RIF and RIF-CD complexes was determined against both Staphylococcus aureus (NCTC® 10788) and methicillin-resistant Staphylococcus aureus (MRSA) (ATCC® 33593™) using the broth microdilution method. Briefly, inclusion complexes of RIF-CD were separately dissolved in sterile distilled water and diluted with Mueller–Hinton broth (MHB) to obtain a series of culture media containing different RIF concentrations ranging from 50 to 0.78 µg/mL. Solutions and suspensions of pure RIF were prepared by adding the pure RIF in methanol and in sterile distilled water, respectively, and then diluted with MHB to achieve the same concentration as for the RIF-CD inclusion complexes. Culture media in the microplates were inoculated with 100 µL of each bacterial suspension to achieve a final bacterial concentration of 2.0 × 10^5 CFU/mL. Pure MHB inoculated with the different bacterial strains was included as a positive control. The inoculated culture media were then incubated at 37 °C for 24 h. The MIC was determined as the lowest concentration of pure RIF and RIF-CD inclusion complexes where no visible bacterial growth was detected.

Series [2] relates to Methicillin-resistant Staphylococcus aureus (MRSA) (ATCC 33593). The series is described as follows: MIC by broth microdilution. It counts as cell-based. Conditions: 24 h, MRSA ATCC 33593, 37 °C. Here is the method:
as §1

Series [3] can be described thus: In vitro release / dissolution study. It counts as physicochemical. The conditions noted are these: all studied release media (pH 1.2, 6.8, 7.4), 37 °C. The procedure: In vitro release profiles for pure RIF and RIF-CD inclusion complexes were evaluated […]. Simulated gastric fluid (pH 1.2), simulated intestinal fluid (pH 6.8), and PBS (pH 7.4) were prepared as the release media in this study and used to mimic biological conditions in the human body. All samples were added into Eppendorf tubes containing 2 mL of the release media and were then placed in an incubator at 37 °C with shaking at 40 rpm. Sampling was carried out at 1, 2, 3, 4, 5, 6, 7, 8, and 24 h by taking 200 µL of each sample, transferring them to HPLC vials containing glass inserts, and replacing the sample with 200 µL of fresh release media. The samples were analyzed using a validated HPLC method.
The HPLC method for RIF quantification was adapted from our previous work. HPLC Agilent 1220 Series (Agilent Technologies, UK Ltd., Stockport, UK) was used to analyze all the samples. Isocratic separation was achieved using a Phenomenex® Luna C18 (ODS1) column (150 × 4.6 mm internal diameter, 5 µm packing) (Phenomenex, Cheshire, UK). The injection volume was 50 µL and the analysis was carried out at room temperature with a flow rate of 1 mL/min. […] RIF was detected by a UV at 334 nm. All chromatograms were analyzed using the Agilent ChemStation® Software B.02.01.

The nature of series [4]: Saturation solubility of RIF in buffered solutions. The conditions noted are these: buffered solution. It counts as physicochemical. Here is the method: Solubility studies were performed to assess RIF solubility in a range of buffers (pH 4.0, pH 7.0, and pH 9.0). For this purpose, an excess amount of RIF was added to 3 mL of adjusted buffered solutions in a glass vial. Suspensions were stirred at 100 rpm in a shaker incubator (Jeio Tech ISF-7100, Medline Scientific, Chalgrove Oxon, UK) at 37 °C for 24 h. Samples were then filtered using 0.2 μm syringe filters (Minisart®, Sartorius Stedim Biotech, Goeltingen, Germany). All samples were diluted appropriately and analyzed using the validated HPLC method described in Section 2.10.
The HPLC method for RIF quantification was adapted from our previous work. HPLC Agilent 1220 Series (Agilent Technologies, UK Ltd., Stockport, UK) was used to analyze all the samples. Isocratic separation was achieved using a Phenomenex® Luna C18 (ODS1) column (150 × 4.6 mm internal diameter, 5 µm packing) (Phenomenex, Cheshire, UK). The injection volume was 50 µL and the analysis was carried out at room temperature with a flow rate of 1 mL/min. The mobile phase was a mixture of 25 mM sodium dihydrogen phosphate buffer (with 1% triethylamine and adjusted using phosphoric acid at pH 6.8) and methanol (ratio 30:70 v/v). RIF was detected by a UV at 334 nm. All chromatograms were analyzed using the Agilent ChemStation® Software B.02.01.

Details of series [5]: method as in earlier work. Conditions: in humans; cited from earlier work.
Series [6] can be described thus: Phase solubility analysis of RIF with cyclodextrins (binding constant, complexation efficiency). It counts as physicochemical. Here is the method: Phase solubility analysis was carried out similarly to the saturation solubility studies by using a range of concentrations of CDs in buffered solutions at different pH vales. […] Solubility of each drug was determined and plotted in a graph with the nominal concentration of cyclodextrin on the x-axis and the nominal concentration of RIF on the y-axis.
In order to determine the binding strength of CD and RIF, the binding constant (Ks) was calculated based on the phase diagram of solubility studies. […] (1) Ks=[RIF−CD]/[RIF]free·[CD]free CD+RIF↔KsCD−RIF where [RIF − CD], [RIF]free, and [CD]free are concentration of the RIF-CD complexes, free RIF, and free CD, respectively.
[RIF]free can be considered as RIF initial solubility (S0), therefore Equation (2) becomes:(2) Ks=[RIF−CD]/S0·[CD]free
The phase solubility diagram was constructed by plotting the RIF molar concentration on the y-axis and the CD molar concentration on the x-axis. […] (3) Ks=slope/S0·(1−slope)
The complexation efficiency (CE) was determined by using the slope of the phase solubility diagram according to Equation (4). (4) CE=[CD−RIF]/[CD]free=S0·Ks=slope/1−slope
Based on CE determination, the CD molar ratio was calculated using Equation (5). (5) Drug :CD molar ratio=1 : (CE+1)/CE

Values after ≈ are worked out from the molar mass of the structure shown. Like-named read-outs stand apart in the source and are kept apart here.

The text below walks through data of article PMC8781390, “Inclusion Complexes of Rifampicin with Native and Derivatized Cyclodextrins: In Silico Modeling, Formulation, and Characterization” (Pharmaceuticals, 2021).

With `CO[C@H]1/C=C/O[C@@]2(C)Oc3c(C)c(O)c4c(O)c(c(/C=N/N5CCN(C)CC5)c(O)c4c3C2=O)NC(=O)/C(C)=C\C=C\[C@H](C)[C@H](O)[C@@H](C)[C@@H](O)[C@@H](C)[C@H](OC(C)=O)[C@@H]1C` [Pure RIF (solution), Rifampicin], the MIC in series [1] (Staphylococcus aureus, NCTC10788, 24 h, n = 3, read-out: MIC) came out at 0.78 µg/mL (≈ 0.948 µM); in series [2] (Staphylococcus aureus, n = 3, read-out: MIC), 0.78 µg/mL (≈ 0.948 µM).

As for `CO[C@H]1/C=C/O[C@@]2(C)Oc3c(C)c(O)c4c(O)c(c(/C=N/N5CCN(C)CC5)c(O)c4c3C2=O)NC(=O)/C(C)=C\C=C\[C@H](C)[C@H](O)[C@@H](C)[C@@H](O)[C@@H](C)[C@H](OC(C)=O)[C@@H]1C` [Pure RIF (suspension), Rifampicin], the MIC in series [1] (24 h, n = 3) is 1.56 µg/mL (≈ 1.9 µM); in series [2] (n = 3) it was 1.56 µg/mL (≈ 1.9 µM).

For `CO[C@H]1/C=C/O[C@@]2(C)Oc3c(C)c(O)c4c(O)c(c(/C=N/N5CCN(C)CC5)c(O)c4c3C2=O)NC(=O)/C(C)=C\C=C\[C@H](C)[C@H](O)[C@@H](C)[C@@H](O)[C@@H](C)[C@H](OC(C)=O)[C@@H]1C` [RIF, Rifampicin], the “RIF released in 2 h” value in series [3] is listed as “less than 10%”. The solubility at 24 h amounted to 870 µg/mL (≈ 1060 µM) in series [4] (aqueous buffer, thermodynamic from solid, buffer pH 7.0, 37 °C); 310 µg/mL (≈ 377 µM) in series [4] (buffer pH 4.0, 37 °C); 1400 µg/mL (≈ 1700 µM) in series [4] (buffer pH 9.0, 37 °C). The oral bioavailability result in series [5] is reported as “approximately 68%”.

Regarding `OC[C@H]1O[C@@H]2O[C@H]3[C@H](O)[C@@H](O)[C@@H](O[C@H]4[C@H](O)[C@@H](O)[C@@H](O[C@H]5[C@H](O)[C@@H](O)[C@@H](O[C@H]6[C@H](O)[C@@H](O)[C@@H](O[C@H]7[C@H](O)[C@@H](O)[C@@H](O[C@H]8[C@H](O)[C@@H](O)[C@@H](O[C@H]1[C@H](O)[C@H]2O)O[C@@H]8CO)O[C@@H]7CO)O[C@@H]6CO)O[C@@H]5CO)O[C@@H]4CO)O[C@@H]3CO` [βCD], the “CE (complexation efficiency)” value in series [6] (pH 4.0) was 0.09; in series [6] (pH 7.0) it was 0.29. Also, the “Ks (binding constant)” value amounted to 215 M⁻¹ in series [6] (pH 4.0, RIF-CD 1:1 complex) and 250 M⁻¹ in series [6] (pH 7.0, RIF-CD 1:1 complex).

In the case of `OC[C@H]1O[C@@H]2O[C@H]3[C@H](O)[C@@H](O)[C@@H](O[C@H]4[C@H](O)[C@@H](O)[C@@H](O[C@H]5[C@H](O)[C@@H](O)[C@@H](O[C@H]6[C@H](O)[C@@H](O)[C@@H](O[C@H]7[C@H](O)[C@@H](O)[C@@H](O[C@H]8[C@H](O)[C@@H](O)[C@@H](O[C@H]9[C@H](O)[C@@H](O)[C@@H](O[C@H]1[C@H](O)[C@H]2O)O[C@@H]9CO)O[C@@H]8CO)O[C@@H]7CO)O[C@@H]6CO)O[C@@H]5CO)O[C@@H]4CO)O[C@@H]3CO` [γCD], the “CE (complexation efficiency)” value in series [6] (pH 4.0) is listed as 0.80; in series [6] (pH 7.0) it was 1.22. The “Ks (binding constant)” value in series [6] (pH 7.0, RIF-CD 1:1 complex) was determined as 1284 M⁻¹.

hydroxypropyl-βCD [HP-βCD]: the “CE (complexation efficiency)” value in series [6] (pH 4.0) is 0.20; in series [6] (pH 7.0), 0.92; in series [6] (pH 9.0) it was 1.12. Moreover, the “Ks (binding constant)” value in series [6] (pH 4.0, RIF-CD 1:1 complex) worked out at 541 M⁻¹; in series [6] (pH 7.0, RIF-CD 1:1 complex) it was 848 M⁻¹; in series [6] (pH 9.0, RIF-CD 1:1 complex) it was 649 M⁻¹.
